From US11519859B2, “Rhodol-based thallium sensors for high-throughput screening of potassium channels” (priority 2018, dated 2022) come the findings set out here.

Data set [1] in a line: Determination of photochemical properties of saponified dyes. It counts as physicochemical. Conditions: for λmax (absorption maximum) / ε (molar absorptivity) / λem (fluorescence emission maximum): after saponification, 150 mM KCl, 10 mM HEPES, 50 μM EDTA, pH = 7.22; for ε (molar absorptivity): at λmax. Here is the method: Evaluation of the photochemical properties of the active Thallium sensing species was accomplished by saponifying 10 μL of each pro-dye stock solution by incubating with 90 μL of 0.1 M KOH for 20 min at 37° C. with the exception of 8b which was treated with 1% NH4OH for 1 h at 37° C. The saponified compounds were diluted into 150 mM KCl buffered with 10 mM HEPES, pH=7.22 with 50 μM of EDTA. All photochemical measurements were taken in this buffer. Absorbance and fluorescence emission spectra were recorded on a Molecular Devices Spectromax M5 using polystyrene cuvettes with path length=1 cm at 23° C. Molar absorptivities are reported for λmax. The emission wavelengths monitored for recording excitation spectra, the excitation wavelengths used for recording emission spectra, and the corresponding emission cutoff filters used are listed in Table 2 below, and representative excitation and emission spectra are shown in FIG. 7.
To determine the in vitro photochemical properties of the active Tl^+ sensing species, 8a-m were treated with base to remove the acetoxymethyl esters and aryl acetate and then diluted into 10 mM HEPES buffered 150 mM KCl with 50 μM EDTA at pH=7.22.

For data set [2], the system named is HEK-293 cells co-expressing GIRK1 and GIRK2. Conditions: dye loading 1 h, 1 mM Tl^+ stimulus; for on/off (Tl^+ flux assay), maximum fold increase in fluorescence after Tl^+ addition: 10 μM ML297, 2 mM Allura Red AC, n = 6.
Protocol: HEK-293 cells co-expressing GIRK1 and GIRK2 were cultured to 80% confluence in a T75 flask (Techno Plastic Products, Trasadingen, CH) at 37° C. and 5% CO2 in medium consisting of Minimal Essential Medium (Cellgro, Manassas, Va.) containing 1× Glutagro (Cellgro, Manassas, Va.) and 10% (v/v) heat-inactivated fetal bovine serum (Life Technologies, Carlsbad, Calif.). The cells were dislodged by treatment with TrypLE (Gibco/Life Technologies, Carlsbad, Calif.), diluted in medium, and plated on clear bottomed, black-walled, amine coated 384 well plates (BD Biosciences, Billerica, Mass.) at a density ˜20,000 cells per well. The plated cells were incubated overnight at 37° C. and 5% CO2 and used for the assay the next day.
Dye loading solutions of Thallos were prepared by dissolving a 25 μg aliquot in 30 μL of 6.7% Pluoronic F-127 (w/v) in DMSO and diluting the resulting solution 1:1000 into assay buffer. Culture medium was removed and replaced with 20 μL of dye loading buffer and incubated in the dark at room temperature for 1 h.
Assay—Assays were conducted on a WaveFront Biosciences Panoptic 1 or 2 (WaveFront Biosciences, Franklin, Tenn.) as indicated. Dye loading solutions were removed and replaced with assay buffer immediately before imaging unless otherwise noted. 10 s following commencement of plate imaging, 20 μL of compound at 2.5× concentration in assay buffer was added and incubated for 120 s at which point 10 μL of Tl^+ at 5× concentration in stimulus buffer (125 mM NaHCO3, 1.8 mM CaSO4, 1 mM MgSO4, 5 mM glucose, 10 mM HEPES, pH 7.4, and T12SO4), and images taken for the following 120 s.
1 mM of T12SO4 (final concentration) was used for stimulus. Assay and stimulus buffers were supplemented with 2 mM of Allura Red AC. […] On/off ratios were calculated by dividing the fluorescence intensity after saturation following Tl^+ addition by the fluorescence intensity immediately after compound addition (n=6).
The next data set concerns the target T1, GIRK1 and GIRK2 (Homo sapiens, UniProt P48051+P48549).
T1 construct: expressed in transfected cells; host or cells: HEK-293
T1 sequence (P48549 1-501): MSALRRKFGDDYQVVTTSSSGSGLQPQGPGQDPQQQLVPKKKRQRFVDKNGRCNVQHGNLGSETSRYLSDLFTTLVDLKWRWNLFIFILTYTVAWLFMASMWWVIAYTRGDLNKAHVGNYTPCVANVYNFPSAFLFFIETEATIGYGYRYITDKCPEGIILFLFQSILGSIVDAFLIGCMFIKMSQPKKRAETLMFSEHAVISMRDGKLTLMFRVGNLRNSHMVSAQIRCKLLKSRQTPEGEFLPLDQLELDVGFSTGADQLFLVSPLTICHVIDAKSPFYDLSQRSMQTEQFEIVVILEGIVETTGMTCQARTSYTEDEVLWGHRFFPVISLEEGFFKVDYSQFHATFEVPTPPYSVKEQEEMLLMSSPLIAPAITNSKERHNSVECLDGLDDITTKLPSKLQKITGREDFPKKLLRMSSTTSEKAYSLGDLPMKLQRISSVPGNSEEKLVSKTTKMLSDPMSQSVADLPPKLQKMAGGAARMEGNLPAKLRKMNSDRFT
T1 sequence (P48051 1-423): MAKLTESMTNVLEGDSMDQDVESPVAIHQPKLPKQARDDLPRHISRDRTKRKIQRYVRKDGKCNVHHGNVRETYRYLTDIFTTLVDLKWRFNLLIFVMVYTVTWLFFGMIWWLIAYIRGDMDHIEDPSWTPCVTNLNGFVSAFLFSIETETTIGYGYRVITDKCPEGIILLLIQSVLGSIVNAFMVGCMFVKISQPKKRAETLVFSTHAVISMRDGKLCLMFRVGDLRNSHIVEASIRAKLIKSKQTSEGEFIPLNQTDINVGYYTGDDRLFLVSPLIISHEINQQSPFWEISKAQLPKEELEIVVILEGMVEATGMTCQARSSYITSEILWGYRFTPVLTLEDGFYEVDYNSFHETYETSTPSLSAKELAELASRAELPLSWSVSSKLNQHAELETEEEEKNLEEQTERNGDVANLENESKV
Kind of data set: ML297 concentration response curves by Tl+ flux assay. It counts as cell-based. The text has this:
ML297 concentration response curves—In general, all concentration-response data were collected on a WaveFront Biosciences Panoptic 2. Thallos treated cells were imaged using 482/35 nm excitation and 536/40 nm emission filters. 8c treated cells were imaged using 529/24 nm excitation and 565/24 nm emission filters (unless otherwise noted). FluxOR Red treated cells were imaged using 544/24 nm excitation and 593/40 nm emission filters (all filters purchased from Semrock, Rochester, N.Y.). FluxOR Red reagent was prepared according to the manufacturer's procedure. 5 μM of 8c was used for dye loading for all conditions.
FluxOR Red procedure with background suppressor. The manufacturer's procedure was followed with the exceptions that the dye loading solution was replaced with 20 μL of assay buffer, solutions of ML297 were prepared in assay buffer plus background suppressor, 20 μL of compound solution was added and 10 μL stimulus buffer (basal) was added according to the general assay protocol described above.
FluxOR Red procedure without background suppressor. The FluxOR Red manufacturer's procedure was followed except the background suppressor was replaced by H2O in all buffers.
Bicarbonate buffer with Allura Red AC. The assay and stimulus buffers described in the general Tl^+ flux procedure were used for dye loading, assay buffer with ML297, and stimulus buffer. All buffers were supplemented with 1 mM of Allura Red AC. The wash step to remove dye loading buffer was omitted.
Bicarbonate buffer without Allura Red AC. The general Tl^+ flux procedure was followed without any solutions supplemented with Allura Red AC.
The fluorescence intensity values of the first 6 time points for each well were averaged and the fluorescence intensity for all time points in the well was divided by this value to provide F/Fo for each time point. The average F/Fo of the vehicle control was then subtracted from each curve and the normalized, control subtracted fluorescence intensity value was sampled at a time point several seconds after Tl^+ addition. […] Fold increases in fluorescence reported in the main paper were calculated by averaging F/Fo between 100 and 110 s after Tl^+ addition. Data presented in FIG. 3 and FIG. 6 were obtained using 8c with the FluxOR Red kit as described above under the FluxOR Red with background suppressor procedure.
The performance of 8c was evaluated in a Tl^+ flux assay to generate a concentration response curve (CRC) of the GIRK activator ML297. […] Normalized, control subtracted fluorescence intensity values were sampled along the curves following Tl^+ addition at each concentration and a CRC was fit using GraphPad Prism (FIG. 3B).

Take `COc1cc(NC(=O)c2ccc3c(c2)C(=O)OC32c3ccc(NC(C)=O)cc3Oc3cc(OC(C)=O)ccc32)ccc1N(CC(=O)OCOC(C)=O)CC(=O)OCOC(C)=O` (centres unmarked) [Compound 8b, bis(acetoxymethyl) 2,2′-((4-(3′-acetamido-6′-acetoxy-3-oxo-3H-spiro[isobenzofuran-1,9′-xanthen]-5-ylcarboxamido)-2-methoxyphenyl)azanediyl)diacetate]: in data set [1], the “λmax (absorption maximum)” value was found to be 463 nm and the “ε (molar absorptivity)” value was determined as 24000 M⁻¹ cm⁻¹. Besides, in data set [1] (reason why spectra were not recorded), the “fluorescence of saponified dye (in words)” value was “very weak fluorescence”. The “fluorescence and response to Tl^+ in cells (in words)” value in data set [2] is given as “Fluorescence was not detected”.
On to `CCN(CC)c1ccc2c(c1)Oc1cc(OC(C)=O)ccc1C21OC(=O)c2cc(C(=O)Nc3ccc(N(CC(=O)OCOC(C)=O)CC(=O)OCOC(C)=O)c(OC)c3)ccc21` (centres unmarked) [Compound 8d, bis(acetoxymethyl) 2,2′-((4-(3′-acetoxy-6′-(diethylamino)-3-oxo-3H-spiro[isobenzofuran-1,9′-xanthen]-5-ylcarboxamido)-2-methoxyphenyl)azanediyl)diacetate], for which, in data set [1], the “λem (fluorescence emission maximum)” value amounted to 551 nm, the “λmax (absorption maximum)” value came to 525 nm and the “ε (molar absorptivity)” value worked out at 55000 M⁻¹ cm⁻¹. Moreover, the “on/off (Tl^+ flux assay), maximum fold increase in fluorescence after Tl^+ addition” value in data set [2] came to 3.28 ± 0.04 fold.
Consider `CCCN(CCC)c1ccc2c(c1)Oc1cc(OC(C)=O)ccc1C21OC(=O)c2cc(C(=O)Nc3ccc(N(CC(=O)OCOC(C)=O)CC(=O)OCOC(C)=O)c(OC)c3)ccc21` (centres unmarked) [Compound 8e, bis(acetoxymethyl) 2,2′-((4-(3′-acetoxy-6′-(dipropylamino)-3-oxo-3H-spiro[isobenzofuran-1,9′-xanthen]-5-ylcarboxamido)-2-methoxyphenyl)azanediyl)diacetate], for which, in data set [1], the “λem (fluorescence emission maximum)” value is given as 553 nm, the “λmax (absorption maximum)” value was determined as 527 nm and the “ε (molar absorptivity)” value was determined as 66000 M⁻¹ cm⁻¹. Further, the “on/off (Tl^+ flux assay), maximum fold increase in fluorescence after Tl^+ addition” value in data set [2] turned out to be 2.94 ± 0.08 fold.
As to `CCCCN(CCCC)c1ccc2c(c1)Oc1cc(OC(C)=O)ccc1C21OC(=O)c2cc(C(=O)Nc3ccc(N(CC(=O)OCOC(C)=O)CC(=O)OCOC(C)=O)c(OC)c3)ccc21` (centres unmarked) [Compound 8f, bis(acetoxymethyl) 2,2′-((4-(3′-acetoxy-6′-(dibutylamino)-3-oxo-3H-spiro[isobenzofuran-1,9′-xanthen]-5-ylcarboxamido)-2-methoxyphenyl)azanediyl)diacetate], in data set [1], the “λem (fluorescence emission maximum)” value is recorded as 556 nm, the “λmax (absorption maximum)” value was 528 nm and the “ε (molar absorptivity)” value was 58000 M⁻¹ cm⁻¹. For the same molecule, in data set [2], the “on/off (Tl^+ flux assay), maximum fold increase in fluorescence after Tl^+ addition” value was determined as 1.52 ± 0.01 fold.
Consider `COc1cc(NC(=O)c2ccc3c(c2)C(=O)OC32c3ccc(NC4CCCCC4)cc3Oc3cc(OC(C)=O)ccc32)ccc1N(CC(=O)OCOC(C)=O)CC(=O)OCOC(C)=O` (centres unmarked) [Compound 8g, bis(acetoxymethyl) 2,2′-((4-(3′-acetoxy-6′-(cyclohexylamino)-3-oxo-3H-spiro[isobenzofuran-1,9′-xanthen]-5-ylcarboxamido)-2-methoxyphenyl)azanediyl)diacetate], for which, in data set [1], the “λem (fluorescence emission maximum)” value was found to be 535 nm, the “λmax (absorption maximum)” value stood at 514 nm and the “ε (molar absorptivity)” value was determined as 57000 M⁻¹ cm⁻¹. The “on/off (Tl^+ flux assay), maximum fold increase in fluorescence after Tl^+ addition” value in data set [2] is listed as 4.26 ± 0.07 fold.
On to `CCCCNc1ccc2c(c1)Oc1cc(OC(C)=O)ccc1C21OC(=O)c2cc(C(=O)Nc3ccc(N(CC(=O)OCOC(C)=O)CC(=O)OCOC(C)=O)c(OC)c3)ccc21` (centres unmarked) [Compound 8h, bis(acetoxymethyl) 2,2′-((4-(3′-acetoxy-6′-(butylamino)-3-oxo-3H-spiro[isobenzofuran-1,9′-xanthen]-5-ylcarboxamido)-2-methoxyphenyl)azanediyl)diacetate], for which, in data set [1], the “λem (fluorescence emission maximum)” value came out at 533 nm, the “λmax (absorption maximum)” value turned out to be 511 nm and the “ε (molar absorptivity)” value was determined as 48000 M⁻¹ cm⁻¹. In data set [2], the “on/off (Tl^+ flux assay), maximum fold increase in fluorescence after Tl^+ addition” value was 3.50 ± 0.07 fold.
As for `Cc1cc(NC(=O)Nc2ccc(F)c(F)c2)n(-c2ccccc2)n1` [ML297], the EC50 (usually the concentration needed to bring the measured effect to its halfway point) was 257 ± 3.7 nM on GIRK1 and GIRK2 (dye 8c (5 μM, 1 h), FluxOR Red kit with background suppressor, 1 mM Tl^+); 204 ± 5.2 nM on GIRK1 and GIRK2 (dye 8c, bicarbonate stimulus buffer, 500 μM Tl^+, no-wash, 1 mM Allura Red AC); 219 ± 23 nM at GIRK1 and GIRK2 (dye Thallos, bicarbonate stimulus buffer, 500 μM Tl^+, no-wash, 1 mM Allura Red AC); 272 ± 23 nM at GIRK1 and GIRK2 (dye Thallos, same procedure (FluxOR Red kit with background suppressor)). For the same molecule, the “pEC50 and standard error of ML297 activation” value (“pEC50 and standard error” below) at GIRK1 and GIRK2 (dye 8c (544x/593m filters), FluxOR Red Kit, Background Suppressor +) was 6.63 ± 0.01; at GIRK1 and GIRK2 (dye 8c (544x/593m filters), FluxOR Red Kit, Background Suppressor −), 6.66 ± 0.04; at GIRK1 and GIRK2 (dye 8c, FluxOR Red Kit, Background Suppressor +), 6.59 ± 0.01; at GIRK1 and GIRK2 (dye 8c, FluxOR Red Kit, Background Suppressor −), 6.61 ± 0.02; at GIRK1 and GIRK2 (dye 8c, HCO3^− Stimulus Buffer, 1 mM Allura Red AC +), 6.69 ± 0.01; at GIRK1 and GIRK2 (dye 8c, HCO3^− Stimulus Buffer, 1 mM Allura Red AC −), 6.59 ± 0.03. Further, the “pEC50 and standard error” value stood at 6.64 ± 0.01 on GIRK1 and GIRK2 (dye FluxOR Red, FluxOR Red Kit, Background Suppressor +); 6.41 ± 0.03 at GIRK1 and GIRK2 (dye FluxOR Red, FluxOR Red Kit, Background Suppressor −); 7.02 ± 0.1 on GIRK1 and GIRK2 (dye FluxOR Red, HCO3^− Stimulus Buffer, 1 mM Allura Red AC −); 6.57 ± 0.04 at GIRK1 and GIRK2 (dye Thallos, FluxOR Red Kit, Background Suppressor +); 6.65 ± 0.02 on GIRK1 and GIRK2 (dye Thallos, FluxOR Red Kit, Background Suppressor −); 6.66 ± 0.01 at GIRK1 and GIRK2 (dye Thallos, HCO3^− Stimulus Buffer, 1 mM Allura Red AC +). Also, on GIRK1 and GIRK2 (dye Thallos, HCO3^− Stimulus Buffer, 1 mM Allura Red AC −), the “pEC50 and standard error” value is reported as 6.61 ± 0.01.
